Measured values reported in ChEMBL document CHEMBL1145818, “Effect of detergent on "promiscuous" inhibitors” (J Med Chem, 2003).

Assays:
[1] = biological target: Chymotrypsinogen A (Bos taurus) (UniProt P00766); experiment: Concentration required for the inhibition of Chymotrypsinogen
[2] = biological target: T1, Dihydrofolate reductase (Homo sapiens) (UniProt P00374); experiment: Concentration required for the inhibition of dihydrofolate reductase
T1 sequence (whole entry): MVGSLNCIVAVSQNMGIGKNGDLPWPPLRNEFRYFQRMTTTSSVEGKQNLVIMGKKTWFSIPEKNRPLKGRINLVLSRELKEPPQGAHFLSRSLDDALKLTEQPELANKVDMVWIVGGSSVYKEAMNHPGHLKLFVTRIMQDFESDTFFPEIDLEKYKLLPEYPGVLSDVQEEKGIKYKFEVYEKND

Concentration [1]: 40 µM
Concentration [2]: 0.4 µM
Compound: Nc1c(/N=N/c2ccc(-c3ccc(/N=N/c4cc(S(=O)(=O)O)c5ccccc5c4N)cc3)cc2)cc(S(=O)(=O)O)c2ccccc12
